Data as given in US20130096119A1, “Isoquinolin-3-Ylurea Derivatives” (priority 2010, published 2013).
≈ marks a conversion by molar mass, not a printed value.

Test system: S. pneumoniae ATCC 49619
Assay: Minimal inhibitory concentration (MIC) by microdilution method (CLSI M7-A7)
Type: cell-based, Streptococcus pneumoniae
Details: Streptococcus pneumoniae, ATCC49619, cation-adjusted Mueller-Hinton Broth supplemented with 3% (v/v) lysed horse blood
Summary of the method: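 Broth microdilution per CLSI M7-A7 in cation-adjusted Mueller-Hinton broth, supplemented with 3% (v/v) lysed horse blood for S. pneumoniae; MIC reported in mg/l.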

Row | Compound | MIC [mg/L]
1 | CCNC(=O)Nc1cc2c(-c3cnn(C)c3)ccc(C)c2cn1.Cl [Example 284, 1-ethyl-3-[8-methyl-5-(1-methyl-1H-pyrazol-4-yl)-isoquinolin-3-yl]-urea hydrochloride] | 4
2 | CCNC(=O)Nc1cc2c(F)c(NCc3ccccc3)cc(Cl)c2cn1 [Example 49, 1-(6-benzylamino-8-chloro-5-fluoro-isoquinolin-3-yl)-3-ethyl-urea] | 2 (≈ 5.36 µM)
3 | CCNC(=O)Nc1cc2cc(-c3ccncc3F)cc(C)c2cn1 [Example 97, 1-ethyl-3-[6-(3-fluoro-pyridin-4-yl)-8-methyl-isoquinolin-3-yl]-urea] | 2 (≈ 6.17 µM)
4 | CCNC(=O)Nc1cc2c(CN3CCN(C)CC3)ccc(Nc3cccc(OC)n3)c2cn1 [Example 276, 1-ethyl-3-[8-(6-methoxy-pyridin-2-ylamino)-5-(4-methyl-piperazin-1-ylmethyl)-isoquinolin-3-yl]-urea] | 4 (≈ 8.9 µM)
5 | CCNC(=O)Nc1cc2cccc(CNc3ccnn3C)c2cn1.Cl [Example 303, 1-ethyl-3-{8-[(2-methyl-2H-pyrazol-3-ylamino)-methyl]-isoquinolin-3-yl}-urea hydrochloride] | 4
6 | CCNC(=O)Nc1cc2cccc(Cn3cc(C)cn3)c2cn1 [Example 300, 1-ethyl-3-[8-(4-methyl-pyrazol-1-ylmethyl)-isoquinolin-3-yl]-urea] | 4 (≈ 12.9 µM)
7 | CCNC(=O)Nc1cc2cc(NCc3cccc(OCCO)c3)cc(C)c2cn1.Cl [Example 129, 1-ethyl-3-{6-[3-(2-hydroxy-ethoxy)-benzylamino]-8-methyl-isoquinolin-3-yl}-urea hydrochloride] | 16
8 | CCNC(=O)Nc1cc2cccc(Nc3cc(OC)ccn3)c2cn1.Cl [Example 160, 1-ethyl-3-[8-(4-methoxy-pyridin-2-ylamino)-isoquinolin-3-yl]-urea hydrochloride] | 2
9 | CCNC(=O)Nc1cc2c(-c3cccc(CN)c3)ccc(C)c2cn1 [Example 11, 1-[5-(3-(aminomethyl)-phenyl)-8-methyl-isoquinolin-3-yl]-3-ethyl-urea] | 2 (≈ 5.98 µM)
10 | CCNC(=O)Nc1cc2cccc(Cn3ccnc3C)c2cn1 [Example 297, 1-ethyl-3-[8-(2-methyl-imidazol-1-ylmethyl)-isoquinolin-3-yl]-urea] | 4 (≈ 12.9 µM)
11 | Cc1ccc(-c2ccncc2)c2cc(NC(=O)NC3CC3)ncc12 [Example 139, 1-cyclopropyl-3-(8-methyl-5-pyridin-4-yl-isoquinolin-3-yl)-urea] | 4 (≈ 12.6 µM)
12 | CCNC(=O)Nc1cc2cccc(Nc3ccc(OC)nc3)c2cn1 [Example 214, 1-ethyl-3-[8-(6-methoxy-pyridin-3-ylamino)-isoquinolin-3-yl]-urea] | 16 (≈ 47.4 µM)
13 | CCNC(=O)Nc1cc2cc(NCc3ccc4cc[nH]c4c3)cc(C)c2cn1.Cl [Example 134, 1-ethyl-3-{6-[(1H-indol-6-ylmethyl)-amino]-8-methyl-isoquinolin-3-yl}-urea hydrochloride] | 16
14 | CCNC(=O)Nc1cc2cccc(COc3ccccn3)c2cn1.Cl [Example 261, 1-ethyl-3-[8-(pyridin-2-yloxymethyl)-isoquinolin-3-yl]-urea hydrochloride] | 8
15 | CCNC(=O)Nc1cc2cccc(Nc3cccc(O)c3)c2cn1 [Example 170, 1-ethyl-3-[8-(3-hydroxy-phenylamino)-isoquinolin-3-yl]-urea] | 2 (≈ 6.2 µM)
16 | CCNC(=O)Nc1cc2cc(NC(=O)c3cccc(C(=O)OC)c3)cc(C)c2cn1 [Example 194, N-[3-(3-ethyl-ureido)-8-methyl-isoquinolin-6-yl]isophthalamic acid methyl ester] | 4 (≈ 9.84 µM)
17 | CCNC(=O)Nc1cc2cc(-c3cccc(OC)c3)cc(C)c2cn1 [Example 76, 1-ethyl-3-[6-(3-methoxy-phenyl)-8-methyl-isoquinolin-3-yl]-urea] | 1 (≈ 2.98 µM)
18 | CCNC(=O)Nc1cc2cc(-c3cccc(C(N)=O)c3)cc(C)c2cn1 [Example 31, 3-[3-(3-ethyl-ureido)-8-methyl-isoquinolin-6-yl]-benzamide] | 1 (≈ 2.87 µM)
19 | CCNC(=O)Nc1cc2cccc(NC(=O)c3cnn[nH]3)c2cn1.Cl [Example 183, 3H-[1,2,3]triazole-4-carboxylic acid [3-(3-ethyl-ureido)-isoquinolin-8-yl]-amide hydrochloride] | 4
20 | CCNC(=O)Nc1cc2c(-c3cscn3)ccc(C)c2cn1.Cl [Example 285, 1-ethyl-3-(8-methyl-5-thiazol-4-yl-isoquinolin-3-yl)-urea hydrochloride] | 2
21 | CCNC(=O)Nc1cc2c(-c3ccncc3)ccc(Nc3cccc(C(=O)OC)c3)c2cn1 [Example 220, 3-[3-(3-ethyl-ureido)-5-pyridin-4-yl-isoquinolin-8-ylamino]-benzoic acid methyl ester] | 16 (≈ 36.2 µM)

The remaining compounds from weak to strong by MIC, led by results:

Row | MIC [mg/L] | Compound
22 | 1 | CCNC(=O)Nc1cc2cccc(Nc3cccc(C(N)=O)c3)c2cn1.Cl [Example 254, 3-[3-(3-ethyl-ureido)-isoquinolin-8-ylamino]-benzamide hydrochloride]
23 | 1 (≈ 3.08 µM) | CCNC(=O)Nc1cc2c(F)c(-c3ccccn3)cc(C)c2cn1 [Example 48, 1-ethyl-3-(5-fluoro-8-methyl-6-pyridin-2-yl-isoquinolin-3-yl)-urea]
24 | 1 (≈ 2.32 µM) | CCNC(=O)Nc1cc2c(F)c(-c3cccnc3)cc(-c3ccc(C(=O)O)cc3)c2cn1 [Example 33, 4-[3-(3-ethyl-ureido)-5-fluoro-6-pyridin-3-yl-isoquinolin-8-yl]-benzoic acid]
25 | 0.5 (≈ 1.1 µM) | CCNC(=O)Nc1cc2c(-c3ccc(CO)cc3)ccc(Nc3cccc(C(=O)O)c3)c2cn1 [Example 249, 3-[3-(3-ethyl-ureido)-5-(4-hydroxymethyl-phenyl)-isoquinolin-8-ylamino]-benzoic acid]
26 | 0.5 (≈ 1.44 µM) | CCNC(=O)Nc1cc2cc(-c3ccc(C(C)=O)cc3)cc(C)c2cn1 [Example 108, 1-[6-(4-acetyl-phenyl)-8-methyl-isoquinolin-3-yl]-3-ethyl-urea]
27 | 0.5 (≈ 1.21 µM) | CCNC(=O)Nc1cc2c(-c3ccnc(C)c3)ccc(Nc3ccc(C)nc3)c2cn1 [Example 245, 1-ethyl-3-[5-(2-methyl-pyridin-4-yl)-8-(6-methyl-pyridin-3-ylamino)-isoquinolin-3-yl]urea]
28 | 0.5 (≈ 1.38 µM) | CCNC(=O)Nc1cc2c(-c3ccc(C(=O)NC)cc3)ccc(C)c2cn1 [Example 6, 4-[3-(3-ethyl-ureido)-8-methyl-isoquinolin-5-yl]-N-methyl-benzamide]
29 | 0.5 (≈ 1.3 µM) | CCNC(=O)Nc1cc2c(-c3cccnc3)ccc(Nc3cccnc3)c2cn1 [Example 224, 1-ethyl-3-[5-pyridin-3-yl-8-(pyridin-3-ylamino)-isoquinolin-3-yl]-urea]
30 | 0.5 (≈ 1.32 µM) | CCNC(=O)Nc1cc2cccc(Nc3ccc(OC)c(C(N)=O)c3)c2cn1 [Example 242, 5-[3-(3-ethyl-ureido)-isoquinolin-8-ylamino]-2-methoxy-benzamide]
31 | 0.5 (≈ 1.07 µM) | CCNC(=O)Nc1cc2c(-c3ccnc(C)c3)ccc(Nc3cccc(C(=O)N(C)C)c3)c2cn1 [Example 248, 3-[3-(3-ethyl-ureido)-5-(2-methyl-pyridin-4-yl)-isoquinolin-8-ylamino]-N,N-dimethyl-benzamide]
32 | 0.25 (≈ 0.664 µM) | CCNC(=O)Nc1cc2cc(-c3ccc(C(=O)N(C)C)cc3)cc(C)c2cn1 [Example 24, 4-[3-(3-ethyl-ureido)-8-methyl-isoquinolin-6-yl]-N,N-dimethyl-benzamide]
